Entries after “also recorded” stand apart in the source; their conditions may differ.
Legend:
[1] = tested on: human melanoma cells; test: Hfg treatment of human melanoma cells; format: cell-based
Text: (§1) TGFbeta derived from bone fuels melanoma bone metastasis by inducing tumor secretion of pro-metastatic factors that act on bone cells to change the skeletal microenvironment. […] Hfg is active orally and by intraperitoneal injection, and it has completed Phase I clinical trials in cancer patients. It suppresses the phosphorylation and activation of Smad2 and Smad3 by inducting of Smad7. Overexpression of inhibitory Smad7 has been associated with a reduction on invasive capacity in vitro and anchorage-independent growth, and delays subcutaneous tumor growth in nude mice. The present inventors have shown that Smad7 overexpression decreased melanoma bone metastasis, thus is useful for treating and/or preventing muscle weakness and atrophy as well as other muscle related side effects in cancer patients.

[2] = tested on: 1205Lu melanoma cells; test: 1205Lu melanoma metastasis in nude mice; format: in vivo
Text: as §1

[3] = EDL muscle specific force in mice with PC-3 prostate cancer bone metastases; format: in vivo; settings: hypogonadal mice with PC-3 prostate cancer metastatic to bone
Method: (§2) In embodiments B and C are shown decreased skeletal muscle cross-sectional area in tumor-bearing mice determined by Micro-CT as described herein. In embodiments D and E are shown decreased body weight (D) and decreased Grip strength (E) in PC-3 tumor bearing mice. […] In embodiment J is shown that RyR1 is oxidized and there is decreased calstabin1 in the RyR1 complex from, skeletal muscle (EDL) from mice with metastatic prostate cancer. RyR1 was immunoprecipitated from 250 μg of EDL homogenate using an anti-RyR antibody (4 μg 5029 Ab), and the immunoprecipitates were separated on SDS-PAGE gels (6% for RyR. 15% for Calstabin). All immunoblots were developed and quantified with the Odyssey system (LI-COR, Inc., Lincoln, Nebr.) using IR labeled anti-mouse and anti-Rabbit IgG (1:10,000 dilution) secondary antibodies. Immunoblots developed using anti-RyR (clone 34C, 1:5,000), anti-Cys-NO (1:1000, Sigma, St. Louis, Mo.), anti-DNP (to determine RyR1 oxidation. 1:250), and anticalstabin (1:2500). […] Quantification of immunoblots showing the relative nitrotyrosine/SERCA for each group of EDLs tested. *p<0.01 compared to non-cancer controls as analyzed by ANOVA. […]
S107 is administered in the drinking water at a dose of 50 mg/kg/d, water consumption is monitored and plasma drug levels determined. […]

[4] = tested on: RyR1; test: RyR1 oxidation/nitrosylation/calstabin1 immunoblot of EDL from PC-3 tumor bearing mice; format: in vivo; settings: mice with prostate cancer metastatic to bone
Method: as §2, with “antibodies.” for “antibodies. Immunoblots developed using anti-RyR (clone 34C, 1:5,000), anti-Cys-NO (1:1000, Sigma, St. Louis, Mo.), anti-DNP (to determine RyR1 oxidation. 1:250), and anticalstabin (1:2500).”
Quantification of RyR1 skeletal channel nitrosylation, oxidation and phosphorylation by protein kinase A (PKA) are performed as described (Bellinger et al., 2009; Bellinger et al., 2008b).
Quantification of depletion of the channel stabilizing subunit calstabin 1 (FKBP12) from skeletal RyR1 by immunoprecipitation techniques are performed as described (Marx et al., 2000). […]

[5] = tested on: PC-3 bone metastases; test: PC-3 prostate cancer bone metastases in mice; format: in vivo; settings: osteolytic model; X-ray, osteolytic lesion area, survival
Text: For all mouse experiments, N=15 for each group of mice for tumors inoculated in the left cardiac ventricle (PC-3) or intratibially (LuCAP23.1) based on power analysis detailed below. Male nude mice are housed in laminar flow isolated hoods with water supplemented with vitamin K and autoclaved mouse chow provided ad libitum. Cells are introduced into mice at 4 wks of age. Animals are anesthetized with ketamine/xylazine and positioned ventral side up.
Multiple modalities of bone imaging including X-ray and μCT are used to longitudinally monitor the bone lesions and confirmed by histology and quantitative histomorphometry as previously described (Dunn et al., 2009; Guise et al., 1996b; Yin et al., 1999). Muscle mass are followed serially in vivo using the Piximus II system (Wiren et al., 2011) and microCT (Manske et al., 2011).

[6] = tested on: LuCaP 23.1 human prostate cancer osteoblastic xenograft; test: LuCaP 23.1 osteoblastic prostate cancer xenograft in tibia of nude mice; format: in vivo
Text: Four-week old, male nude mice were inoculated into the tibia with LuCaP 23.1 human prostate cancer osteoblastic xenograft (n=14-15/group).

[7] = co-administration of S107 and SD208 in tumor bearing mice; format: in vivo; settings: S107 in drinking water about 50 mg/kg/day
Method: For example, administering the TGFbeta kinase inhibitor SD208 prevents oxidation of RyR1 and SERCA in skeletal muscles from tumor bearing mice, thus increasing muscle specific force production and grip strength in these mice. The co-administration of S107 further inhibits SR Ca^2+ leak by reducing the stress-induced depletion of calstabin from the RyR channel complex. […] Thus, when these are co-administered, the benzothiazepine derivative is administered at a dosage of between about 20 mg/kg/day and about 100 mg/kg/day and the inhibitor is administered in an amount of about 10 mg/kg/day and about 50 mg/kg/day. The ratio of the amount of benzothiazepine derivative to inhibitor in the co-administered formulation should be between 1:1 to 5:1 and preferably 1.3:1 to 2.5:1. Also, the benzothiazepine and inhibitor can be administered at the same time in a single formulation or sequentially if each is present in a separate formulation.

[8] = tested on: RyR; test: S107 blood brain barrier crossing and calstabin binding to RyR in brain in vivo
Text: Data from heart and soleus muscle are also illustrated.
Cardiac muscle RyR2 is PKA hyperphosphorylated, oxidized, nitrosylated and depleted of calstabin2 in animal models of heart failure (HF) and in the hearts of patients with HF. […] Compounds of formula I-o, which share a common structure with S107, are also expected to have similar activities. This advantage is expected to enhance the ability of the TGFbeta inhibitor to be available to act upon most body tissues for improved effectiveness.

[9] = tested on: RyR2; settings: animals; cited from earlier work
[10] = tested on: RyR; settings: cited from earlier work
[11] = target: T1, RyR1 (Mus musculus, UniProt E9PZQ0); parameters: from tissue; host or cells: skeletal muscle of mdx mice; settings: mdx model of DMD; cited from earlier work
T1 sequence (E9PZQ0 whole entry): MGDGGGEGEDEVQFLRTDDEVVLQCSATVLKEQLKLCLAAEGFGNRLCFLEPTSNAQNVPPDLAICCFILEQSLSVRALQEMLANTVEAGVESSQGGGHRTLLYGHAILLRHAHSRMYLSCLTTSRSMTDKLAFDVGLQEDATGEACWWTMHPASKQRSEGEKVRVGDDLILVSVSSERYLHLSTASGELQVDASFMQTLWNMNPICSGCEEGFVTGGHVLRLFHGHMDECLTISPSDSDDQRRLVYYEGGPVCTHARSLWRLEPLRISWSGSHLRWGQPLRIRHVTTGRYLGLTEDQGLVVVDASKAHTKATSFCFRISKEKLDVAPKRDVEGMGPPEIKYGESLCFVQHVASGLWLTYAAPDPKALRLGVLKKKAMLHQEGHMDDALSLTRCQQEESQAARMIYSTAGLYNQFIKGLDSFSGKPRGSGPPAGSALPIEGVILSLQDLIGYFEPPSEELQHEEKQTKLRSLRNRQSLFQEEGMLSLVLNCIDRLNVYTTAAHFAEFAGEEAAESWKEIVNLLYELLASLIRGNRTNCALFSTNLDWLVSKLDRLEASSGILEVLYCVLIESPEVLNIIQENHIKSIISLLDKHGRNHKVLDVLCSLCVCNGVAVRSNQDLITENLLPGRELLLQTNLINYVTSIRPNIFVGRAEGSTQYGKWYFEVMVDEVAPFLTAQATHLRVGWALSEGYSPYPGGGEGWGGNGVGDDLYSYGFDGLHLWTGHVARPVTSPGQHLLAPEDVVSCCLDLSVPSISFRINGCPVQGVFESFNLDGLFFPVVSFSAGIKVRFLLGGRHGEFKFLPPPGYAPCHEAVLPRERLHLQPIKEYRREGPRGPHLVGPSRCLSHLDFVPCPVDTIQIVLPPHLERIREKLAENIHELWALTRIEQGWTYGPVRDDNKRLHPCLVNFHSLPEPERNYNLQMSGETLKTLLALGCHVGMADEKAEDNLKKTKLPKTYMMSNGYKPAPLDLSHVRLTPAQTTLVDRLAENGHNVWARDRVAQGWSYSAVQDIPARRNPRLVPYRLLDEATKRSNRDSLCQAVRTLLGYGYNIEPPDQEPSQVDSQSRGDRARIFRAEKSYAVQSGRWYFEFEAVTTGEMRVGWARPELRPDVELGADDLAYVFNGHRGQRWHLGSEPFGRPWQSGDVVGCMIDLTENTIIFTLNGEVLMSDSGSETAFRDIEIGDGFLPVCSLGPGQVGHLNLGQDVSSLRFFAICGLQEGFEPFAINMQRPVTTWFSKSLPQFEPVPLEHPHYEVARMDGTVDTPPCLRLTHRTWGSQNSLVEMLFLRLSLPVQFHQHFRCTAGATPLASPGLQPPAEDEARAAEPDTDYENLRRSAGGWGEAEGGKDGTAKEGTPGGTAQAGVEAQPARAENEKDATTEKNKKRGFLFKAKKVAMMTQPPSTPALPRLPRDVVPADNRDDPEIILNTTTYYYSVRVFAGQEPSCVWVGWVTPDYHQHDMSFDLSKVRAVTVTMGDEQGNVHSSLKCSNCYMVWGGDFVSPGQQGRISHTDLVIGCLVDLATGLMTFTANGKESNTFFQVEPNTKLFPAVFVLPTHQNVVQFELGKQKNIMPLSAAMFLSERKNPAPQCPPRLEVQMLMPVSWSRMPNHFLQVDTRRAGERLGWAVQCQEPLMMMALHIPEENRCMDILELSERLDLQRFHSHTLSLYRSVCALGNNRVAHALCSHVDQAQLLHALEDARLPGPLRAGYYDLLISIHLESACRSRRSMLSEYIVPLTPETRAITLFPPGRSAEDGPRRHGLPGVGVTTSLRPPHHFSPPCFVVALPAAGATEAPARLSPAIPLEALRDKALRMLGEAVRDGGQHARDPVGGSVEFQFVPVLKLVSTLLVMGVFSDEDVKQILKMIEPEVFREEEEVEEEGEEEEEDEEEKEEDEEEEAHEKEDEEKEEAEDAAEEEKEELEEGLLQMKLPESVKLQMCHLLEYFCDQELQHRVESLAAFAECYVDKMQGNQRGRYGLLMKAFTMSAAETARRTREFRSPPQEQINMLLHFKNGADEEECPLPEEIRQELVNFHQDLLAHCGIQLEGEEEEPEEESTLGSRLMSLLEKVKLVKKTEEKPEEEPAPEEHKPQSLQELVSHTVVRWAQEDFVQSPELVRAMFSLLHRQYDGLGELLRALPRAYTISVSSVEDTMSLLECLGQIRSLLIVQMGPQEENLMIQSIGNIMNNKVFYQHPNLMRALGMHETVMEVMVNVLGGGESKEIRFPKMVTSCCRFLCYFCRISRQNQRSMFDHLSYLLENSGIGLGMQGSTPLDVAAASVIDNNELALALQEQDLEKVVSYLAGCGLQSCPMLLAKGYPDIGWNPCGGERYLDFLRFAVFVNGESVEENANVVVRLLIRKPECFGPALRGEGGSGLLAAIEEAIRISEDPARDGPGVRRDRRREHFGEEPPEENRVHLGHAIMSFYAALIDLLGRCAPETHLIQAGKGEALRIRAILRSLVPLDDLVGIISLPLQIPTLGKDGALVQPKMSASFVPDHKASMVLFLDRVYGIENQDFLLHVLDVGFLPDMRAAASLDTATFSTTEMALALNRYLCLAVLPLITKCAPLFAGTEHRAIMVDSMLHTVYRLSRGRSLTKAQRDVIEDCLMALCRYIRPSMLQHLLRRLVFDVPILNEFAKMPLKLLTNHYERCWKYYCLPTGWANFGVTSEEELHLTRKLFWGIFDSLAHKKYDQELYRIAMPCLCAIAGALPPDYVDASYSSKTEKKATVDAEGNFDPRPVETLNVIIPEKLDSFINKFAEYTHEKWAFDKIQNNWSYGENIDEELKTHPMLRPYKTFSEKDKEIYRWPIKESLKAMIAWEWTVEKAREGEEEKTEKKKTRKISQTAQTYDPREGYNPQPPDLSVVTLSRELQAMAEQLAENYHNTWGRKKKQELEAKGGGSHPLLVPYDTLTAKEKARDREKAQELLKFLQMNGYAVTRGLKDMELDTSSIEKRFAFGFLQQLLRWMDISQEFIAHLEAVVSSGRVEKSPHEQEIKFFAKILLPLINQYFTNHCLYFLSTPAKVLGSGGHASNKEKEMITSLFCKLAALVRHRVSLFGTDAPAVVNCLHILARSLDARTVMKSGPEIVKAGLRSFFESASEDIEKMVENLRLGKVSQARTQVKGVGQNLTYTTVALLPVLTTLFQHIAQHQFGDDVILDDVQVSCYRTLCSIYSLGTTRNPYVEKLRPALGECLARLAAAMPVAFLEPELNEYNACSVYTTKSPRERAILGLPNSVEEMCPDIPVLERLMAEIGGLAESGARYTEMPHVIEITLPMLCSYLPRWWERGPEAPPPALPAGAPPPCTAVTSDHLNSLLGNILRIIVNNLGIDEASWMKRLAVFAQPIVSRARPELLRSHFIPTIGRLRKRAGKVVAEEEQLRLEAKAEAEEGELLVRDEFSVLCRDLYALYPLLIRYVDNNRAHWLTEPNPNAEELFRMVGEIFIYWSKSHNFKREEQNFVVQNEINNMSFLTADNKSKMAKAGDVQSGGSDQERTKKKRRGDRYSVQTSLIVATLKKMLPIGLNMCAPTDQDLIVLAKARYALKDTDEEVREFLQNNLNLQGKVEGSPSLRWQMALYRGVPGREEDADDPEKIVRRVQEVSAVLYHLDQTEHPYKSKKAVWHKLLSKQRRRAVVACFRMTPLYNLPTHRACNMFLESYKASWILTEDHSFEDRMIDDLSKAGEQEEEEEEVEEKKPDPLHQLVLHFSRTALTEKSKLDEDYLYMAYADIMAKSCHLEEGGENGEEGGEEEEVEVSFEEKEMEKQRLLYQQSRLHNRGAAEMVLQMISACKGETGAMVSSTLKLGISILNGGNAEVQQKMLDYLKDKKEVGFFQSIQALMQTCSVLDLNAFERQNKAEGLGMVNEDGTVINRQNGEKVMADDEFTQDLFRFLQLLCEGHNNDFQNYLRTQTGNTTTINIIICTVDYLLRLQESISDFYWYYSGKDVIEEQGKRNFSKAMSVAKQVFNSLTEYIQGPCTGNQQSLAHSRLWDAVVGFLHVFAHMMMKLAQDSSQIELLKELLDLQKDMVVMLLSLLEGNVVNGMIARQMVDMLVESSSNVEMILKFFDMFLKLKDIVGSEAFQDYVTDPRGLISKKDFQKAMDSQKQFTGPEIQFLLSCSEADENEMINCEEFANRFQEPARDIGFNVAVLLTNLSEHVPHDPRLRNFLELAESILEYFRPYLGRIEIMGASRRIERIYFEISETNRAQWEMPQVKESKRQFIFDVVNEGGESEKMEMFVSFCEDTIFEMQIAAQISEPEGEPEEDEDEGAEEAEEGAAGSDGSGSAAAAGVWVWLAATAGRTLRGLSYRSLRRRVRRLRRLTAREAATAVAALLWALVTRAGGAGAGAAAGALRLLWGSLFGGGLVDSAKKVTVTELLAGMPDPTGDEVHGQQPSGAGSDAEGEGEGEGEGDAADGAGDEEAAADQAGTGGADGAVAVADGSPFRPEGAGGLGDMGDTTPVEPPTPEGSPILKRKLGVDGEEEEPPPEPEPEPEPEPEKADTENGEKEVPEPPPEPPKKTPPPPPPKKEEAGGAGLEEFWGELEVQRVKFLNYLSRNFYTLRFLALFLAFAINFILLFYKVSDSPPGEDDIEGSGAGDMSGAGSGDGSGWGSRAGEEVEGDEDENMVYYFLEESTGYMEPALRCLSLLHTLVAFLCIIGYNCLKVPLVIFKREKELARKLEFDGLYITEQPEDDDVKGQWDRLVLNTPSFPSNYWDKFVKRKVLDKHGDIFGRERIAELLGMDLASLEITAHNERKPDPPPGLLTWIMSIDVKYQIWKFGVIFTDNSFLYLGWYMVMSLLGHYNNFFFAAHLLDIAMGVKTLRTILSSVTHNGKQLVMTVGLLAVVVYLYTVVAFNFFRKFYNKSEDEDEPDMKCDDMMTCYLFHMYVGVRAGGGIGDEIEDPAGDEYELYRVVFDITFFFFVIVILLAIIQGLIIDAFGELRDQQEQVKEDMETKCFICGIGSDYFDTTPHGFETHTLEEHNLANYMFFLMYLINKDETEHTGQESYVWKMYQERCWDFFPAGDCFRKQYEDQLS
T1 sequence (P26883 2-108 partner limits assumed): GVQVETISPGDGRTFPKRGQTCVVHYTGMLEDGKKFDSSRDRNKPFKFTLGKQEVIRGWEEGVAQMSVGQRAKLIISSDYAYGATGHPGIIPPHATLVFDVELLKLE

[12] = target: T1, RyR1; parameters: in a mouse model of aging, oxidation of skeletal muscle RyR1 causes depletion of the stabilizing subunit calstabin1 (FKBP12); from tissue; host or cells: skeletal muscle of aged (2 yr old) mice; settings: mouse model of aging; cited from earlier work
[13] = patients with prostate cancer bone metastases, regardless of radiographic phenotype; cited from earlier work

O=C(CC1NCCCC1O)Cn1cnc2cc(Br)c(Cl)cc2c1=O (stereo not shown) [Halofuginone]
cell proliferation [1]: inhibited cell proliferation
expression of TGFbeta target genes (PTHrP, CTGF, CXCR4, IL11) [1]: reducing expression of TGFbeta target genes
osteolysis in mice with established bone metastasis ([2]; assessed by radiography, vs placebo): significantly less osteolysis than mice receiving placebo
bone metastasis, preventive protocol ([2]; nude mice inoculated with 1205Lu melanoma cells): inhibited bone metastasis

Fc1ccc(Cl)cc1-c1nc(Nc2ccncc2)c2nccnc2n1 [SD-208]
muscle (EDL) specific force production [3]: improved muscle specific force production
skeletal muscle RyR1 oxidation, nitrosylation and depletion of calstabin 1 [4]: prevented oxidation/nitrosylation/calstabin1 depletion from RyR1; also recorded: prevented oxidation of RyR1
prevention of PC-3 bone metastases [5]: highly effective to prevent bone metastases due to PC-3; also recorded: prevents PC-3 bone metastases
bone formation and tumor growth in LuCaP 23.1 ([6]; 50 or 150 mg/kg/day po, from 12 weeks post inoculation): does not increase bone formation or tumor growth
efficacy against LuCAP23.1 bone metastases ([6]; osteoblastic model): not effective against LuCAP23.1 bone metastases
effect of oral SD208 about 30 mg/kg/day co-administered with S107 [7]: same effects as administering SD208 at a dosage of about 60 mg/kg/day

COc1ccc2c(c1)CN(C)CCS2 [S107]
crossing of the blood brain barrier [8]: crosses the blood brain barrier
binding of calstabin to RyR in the brain ([8]; mid-section and cerebellum): enhances binding of calstabin to a RyR in the brain
HF progression [9]: inhibits HF progression
specificity [10]: RyR specific
grip strength [11]: improves grip strength
muscle damage [11]: reduced muscle damage
SR Ca2+ leak (Ca2+ sparks, channel open probability) [12]: reduced SR Ca^2+ leak
exercise capacity [12]: improved
muscle force production [12]: improved muscle force production
oxidation induced depletion of calstabin1 from RyR1 [12]: prevented oxidation induced depletion of calstabin1 from RyR1
tetanic [Ca2+] [12]: increased tetanic [Ca^2+]

denosumab: inhibitor of bone resorption
skeletal morbidity [13]: reduce skeletal morbidity

From patent publication US20140128349A1 (Indiana University School of Medicine, priority 2012, published 2014)
